The target in one assay is T1, C-terminal His-tag-HDAC8 (Homo sapiens, UniProt Q9BY41).
T1 construct: His (C); purchased BPS Bioscience 50008
T1 sequence (Q9BY41 1-377): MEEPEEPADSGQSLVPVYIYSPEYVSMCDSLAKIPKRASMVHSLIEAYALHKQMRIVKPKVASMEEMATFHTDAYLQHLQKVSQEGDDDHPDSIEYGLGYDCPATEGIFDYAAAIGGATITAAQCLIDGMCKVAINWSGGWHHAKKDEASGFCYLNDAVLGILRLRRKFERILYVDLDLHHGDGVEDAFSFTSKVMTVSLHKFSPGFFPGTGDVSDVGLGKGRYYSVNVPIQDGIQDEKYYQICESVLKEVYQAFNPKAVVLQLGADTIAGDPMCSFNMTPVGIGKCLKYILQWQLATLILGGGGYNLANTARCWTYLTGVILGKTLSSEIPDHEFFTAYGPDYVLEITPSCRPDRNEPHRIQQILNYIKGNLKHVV
The assay can be described thus: HDAC-Glo I/II enzyme assay, HDAC8. Type of assay: biochemical. Particulars: ± standard error, three independent measurements.

A further assay concerns the target LSD1 (Homo sapiens, UniProt O60341). As to the kind of experiment: LSD1 MALDI-TOF enzyme assay. Details: made in house. The format is biochemical. To be noted: ± standard error, three independent measurements.
The target of the next assay is T2, HDAC6 (Homo sapiens, UniProt Q9UBN7).
T2 construct: endogenous in cells; host or cells: THP-1
T2 sequence (Q9UBN7 1-1215): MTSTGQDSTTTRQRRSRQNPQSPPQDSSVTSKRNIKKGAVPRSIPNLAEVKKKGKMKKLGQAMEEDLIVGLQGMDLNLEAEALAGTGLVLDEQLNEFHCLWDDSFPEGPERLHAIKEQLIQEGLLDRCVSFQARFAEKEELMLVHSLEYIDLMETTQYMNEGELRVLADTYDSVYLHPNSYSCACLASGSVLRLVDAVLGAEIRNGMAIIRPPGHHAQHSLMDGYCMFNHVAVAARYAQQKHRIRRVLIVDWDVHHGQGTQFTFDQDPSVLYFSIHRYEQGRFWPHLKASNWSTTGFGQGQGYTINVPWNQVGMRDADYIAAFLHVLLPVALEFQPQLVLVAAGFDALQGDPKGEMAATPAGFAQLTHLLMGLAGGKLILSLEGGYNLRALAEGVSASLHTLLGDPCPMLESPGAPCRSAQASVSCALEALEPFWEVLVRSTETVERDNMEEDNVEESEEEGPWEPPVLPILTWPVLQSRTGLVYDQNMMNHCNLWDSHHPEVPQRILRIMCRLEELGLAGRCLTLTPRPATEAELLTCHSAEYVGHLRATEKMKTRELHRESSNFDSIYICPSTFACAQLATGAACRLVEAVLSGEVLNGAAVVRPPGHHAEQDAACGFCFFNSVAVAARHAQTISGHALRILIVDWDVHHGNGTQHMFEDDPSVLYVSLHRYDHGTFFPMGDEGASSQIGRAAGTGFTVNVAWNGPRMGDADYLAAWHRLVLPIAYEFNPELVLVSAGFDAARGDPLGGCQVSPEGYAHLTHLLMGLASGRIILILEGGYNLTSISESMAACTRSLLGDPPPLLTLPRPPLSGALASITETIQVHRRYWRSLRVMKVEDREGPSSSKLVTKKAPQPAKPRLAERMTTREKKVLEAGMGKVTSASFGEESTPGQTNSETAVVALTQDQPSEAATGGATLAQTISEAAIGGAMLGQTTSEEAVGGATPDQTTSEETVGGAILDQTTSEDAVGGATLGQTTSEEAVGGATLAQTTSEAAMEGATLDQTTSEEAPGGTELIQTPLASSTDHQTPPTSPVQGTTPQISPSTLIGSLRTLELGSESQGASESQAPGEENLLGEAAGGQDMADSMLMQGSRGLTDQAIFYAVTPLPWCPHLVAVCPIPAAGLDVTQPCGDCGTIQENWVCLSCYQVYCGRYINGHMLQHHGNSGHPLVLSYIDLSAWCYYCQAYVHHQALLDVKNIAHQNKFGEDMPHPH
The assay can be described thus: Cellular thermal shift assay (CETSA), HDAC6. Type of assay: cell-based. To be noted: THP-1 cells, 1 h; 4 μM (methods, Figure 2), Figure S14 legend 500 nM. As to the method:
THP-1 cells, 1 × 10^7 cells at a density of 1 × 10^6 cells/mL, were treated with 4 μM of test compounds (1 h, 37 °C, 5% CO2). Cells were centrifuged, and the pellet was resuspended with 1 × Phosphate Buffer Saline (Gibco, Grand Island, NY, USA, #10010023) containing 1 × Protease Inhibitor Cocktail (Cell Signaling Technology, Beverly, MA, USA, #5871) and 1 mM phenylmethylsulfonyl fluoride (PMSF, Sigma Aldrich, St. Louis, MO, USA, #10837091001). The suspension volume was divided equally and heated for 3 min at 43–64 °C in a T100 Thermal Cycler (Bio-rad, Hercules, CA, USA). For protein extraction, cells were snap-frozen using liquid nitrogen, thawed twice (25 °C, 1 min), then centrifuged (20,000× g, 15 min, 4 °C). Following centrifugation, protein containing supernatants were denatured at 70 °C for 10 min and loaded on SDS-PAGE gels (Bio-Rad, Hercules, CA, USA, 161-0317). After electrophoresis (100 V and 60 min), proteins were transferred onto PVDF membrane (Bio-Rad #1620177) at 200 mA for 180 min and immunoblotted with primary antibodies (1:10,000 dilution for anti-LSD1 Antibody ab129195 [EPR6825], 1:1000 dilution for Anti-HDAC6 Antibody CST 7558, 1:1000 dilution for Anti-HDAC1 Antibody ab53091, 1:1000 dilution for Anti-HDAC8 Antibody ab187139, 1:5000 dilution for Anti-beta Actin Antibody ab8227) overnight at 4 °C. The next day, membranes were incubated with HRP-conjugated secondary antibodies (1:5000 dilution for Abcam, Cambridge, UK, ab205718) for 1 h at room temperature. The signal was detected with BIORAD Chemi-Doc XRS+ System and by using Immobilon Forte Western HRP Substrate (WBLUF0500).

The next assay has as its system Jurkat. The assay can be described thus: Cell Titer-Glo cell viability, Jurkat. The format is cell-based. To be noted: Homo sapiens, 120 h, ± standard deviation, three biological repeats, read-out: IC50 cell viability Jurkat.
The next assay addresses T3, HDAC8 (Homo sapiens, UniProt Q9BY41).
T3 construct: endogenous in cells; host or cells: THP-1
T3 sequence (Q9BY41 1-377): T1 sequence (Q9BY41 1-377)
The assay can be described thus: Cellular thermal shift assay (CETSA), HDAC8. Type of assay: cell-based. Particulars: THP-1 cells, 1 h; 4 μM (methods, Figure 2), Figure S14 legend 500 nM. As to the method:
THP-1 cells, 1 × 10^7 cells at a density of 1 × 10^6 cells/mL, were treated with 4 μM of test compounds (1 h, 37 °C, 5% CO2). Cells were centrifuged, and the pellet was resuspended with 1 × Phosphate Buffer Saline (Gibco, Grand Island, NY, USA, #10010023) containing 1 × Protease Inhibitor Cocktail (Cell Signaling Technology, Beverly, MA, USA, #5871) and 1 mM phenylmethylsulfonyl fluoride (PMSF, Sigma Aldrich, St. Louis, MO, USA, #10837091001). The suspension volume was divided equally and heated for 3 min at 43–64 °C in a T100 Thermal Cycler (Bio-rad, Hercules, CA, USA). For protein extraction, cells were snap-frozen using liquid nitrogen, thawed twice (25 °C, 1 min), then centrifuged (20,000× g, 15 min, 4 °C). Following centrifugation, protein containing supernatants were denatured at 70 °C for 10 min and loaded on SDS-PAGE gels (Bio-Rad, Hercules, CA, USA, 161-0317). […] The signal was detected with BIORAD Chemi-Doc XRS+ System and by using Immobilon Forte Western HRP Substrate (WBLUF0500).

In another assay the test system is DU-145. The assay can be described thus: Wound healing assay, DU-145. Type of assay: cell-based. Particulars: 4 μM, 72 h, 1% FBS. As to the method: Figure S20. Wound healing assay with iDual and ricolinostat. (A) MDA-MB-231 and (B) DU-145 […]
and ricolinostat for 72 h cells grown in relative medium with (1%) FBS conditions. Wound healing is photographed with Nikon Eclipse TS 100 microscope. Wound/healed area is quantified using Image […]

The next assay has as its system THP-1 cells. The assay can be described thus: Combination treatment with antileukemic drugs, THP-1 cell viability. Type of assay: cell-based. Particulars: compound 5 μM 72 h, then compound + etoposide 0.2 μM 48 h.

The values that follow come from publication PMC9737972, “Dual LSD1 and HDAC6 Inhibition Induces Doxorubicin Sensitivity in Acute Myeloid Leukemia Cells” (Cancers, 2022).

For `O=C(NO)c1ccc(CN2CCC(CNC3(c4ccccc4)CC3)CC2)cc1` [iHDAC6], the IC50 (usually the concentration at which inhibition is half-maximal) is 0.45 ± 0.07 µM against C-terminal His-tag-HDAC8, > 100 µM at LSD1 and 10.7 ± 0.8 µM in the assay on Jurkat. Further, the “thermal stabilization of HDAC6 (CETSA)” value at HDAC6 is “stabilized HDAC6 only”.
Regarding `O=C(NO)c1ccc(CN2CCC(CN[C@@H]3C[C@H]3c3ccccc3)CC2)cc1` (relative stereo) [iDual], the IC50 against C-terminal His-tag-HDAC8 was found to be 0.29 ± 0.04 µM; in the assay on Jurkat it was 15.5 ± 1.4 µM. Also, the “thermal stabilization of HDAC8 (CETSA)” value at HDAC8 is recorded as “not significantly stabilized”. In addition, the “wound healing capacity DU-145” value with DU-145 was “slowed down”. In addition, the “thermal stabilization of HDAC6 (CETSA)” value at HDAC6 is “increased thermal stability”. Further, the “cell viability after pre-treatment with compound and co-treatment with etoposide” value in the assay on THP-1 cells is “decreased cell viability was not observed”.
